Test results reported in ChEMBL document CHEMBL4613278, “Pyridine Derivative of the Natural Alkaloid Berberine as Human Telomeric G4-DNA Binder: A Solution and Solid-State Study” (ACS Med Chem Lett, 2020).
Activity calls are given as the source filed them. The rule behind the calls is not given here.

Columns and labels:
Type in all cases: nucleic-acid assay
Quadruplex DNA [1] = test: Binding affinity to human Tel12 G4 quadruplex DNA assessed as gibbs free energy change at 298.15 K by isothermal titration calorimetric analysis
Quadruplex DNA [2] = test: Binding affinity to human Tel23 G4 quadruplex DNA at 298.15 K by isothermal titration calorimetric analysis
Quadruplex DNA [3] = test: Binding affinity to human Tel12 G4 quadruplex DNA assessed as change in entropy at 298.15 K by isothermal titration calorimetric analysis
Quadruplex DNA [4] = test: Binding affinity to human Tel12 G4 quadruplex DNA at 298.15 K by isothermal titration calorimetric analysis
Quadruplex DNA [5] = test: Binding affinity to human Tel12 G4 quadruplex DNA assessed as quadruplex DNA stabilization by measuring increase in melting temperature at compound:quadruplex DNA ratio of 1:1 by thermal melting studies
Quadruplex DNA [6] = test: Binding affinity to human Tel12 G4 quadruplex DNA assessed as change in enthalpy at 298.15 K by isothermal titration calorimetric analysis
Quadruplex DNA [7] = test: Binding affinity to human Tel23 G4 quadruplex DNA assessed as decrease in absorption maxima at 338 and 413 nm at 3 uM by spectrophotometric titration analysis
Quadruplex DNA [8] = test: Binding affinity to human Tel12 G4 quadruplex DNA assessed as decrease in intensity of positive peaks measured after 5 mins by circular dichroism method
Quadruplex DNA [9] = test: Binding affinity to human Tel12 G4 quadruplex DNA assessed as decrease in absorption maxima at 338 and 413 nm at 3 uM by spectrophotometric titration analysis
Quadruplex DNA [10] = test: Binding affinity to human Tel12 G4 quadruplex DNA assessed as increase in fluorescence intensity at 1 uM by spectrofluorimetric titration analysis
Quadruplex DNA [11] = test: Binding affinity to human Tel23 G4 quadruplex DNA assessed as decrease in intensity of positive peaks measured after 5 mins by circular dichroism method
Quadruplex DNA [12] = test: Binding affinity to human Tel23 G4 quadruplex DNA assessed as gibbs free energy change at 298.15 K by isothermal titration calorimetric analysis
Quadruplex DNA [13] = test: Binding affinity to human Tel23 G4 quadruplex DNA assessed as change in enthalpy at 298.15 K by isothermal titration calorimetric analysis
Quadruplex DNA [14] = test: Binding affinity to human Tel23 G4 quadruplex DNA assessed as change in entropy at 298.15 K by isothermal titration calorimetric analysis
Quadruplex DNA [15] = test: Binding affinity to human Tel23 G4 quadruplex DNA assessed as increase in fluorescence intensity at 1 uM by spectrofluorimetric titration analysis
Quadruplex DNA [16] = test: Binding affinity to human Tel23 G4 quadruplex DNA assessed as sharp isosbestic point at 350, 375 and 430 nm at 3 uM by spectrophotometric titration analysis
Quadruplex DNA [17] = test: Binding affinity to human Tel23 G4 quadruplex DNA assessed as quadruplex DNA stabilization by measuring increase in melting temperature at compound:quadruplex DNA ratio of 1:1 by thermal melting studies
Quadruplex DNA [18] = test: Binding affinity to human Tel12 G4 quadruplex DNA assessed as sharp isosbestic point at 351 and 433 nm at 3 uM by spectrophotometric titration analysis

Question: With `COc1ccc2c(CCCc3ccncc3)c3[n+](cc2c1OC)CCc1cc2c(cc1-3)OCO2` as the molecule, how does the deltaG (Quadruplex DNA [1]) read?
Answer: Its deltaG is -7.38 kcal/mol.

Question: And the K (Quadruplex DNA [2])?
Answer: Its K is 8.15 ×10⁴ /M.

Question: And the TdeltaS (Quadruplex DNA [3])?
Answer: The TdeltaS was 0.3 kcal/mol.

Question: And the K (Quadruplex DNA [4])?
Answer: Its K is 3.16 ×10⁵ /M.

Question: What about the deltaTm (Quadruplex DNA [5]) of the same molecule?
Answer: The deltaTm was 15 K.

Question: What about the deltaH (Quadruplex DNA [6]) of the same molecule?
Answer: Its deltaH is -7.08 kcal/mol.

Question: And the Activity (Quadruplex DNA [7])?
Answer: The Activity was “Active”.

Question: What about the Activity (Quadruplex DNA [8]) of the same molecule?
Answer: The Activity was “Active”.

Question: And the Activity (Quadruplex DNA [9])?
Answer: Its Activity is “Active”.

Question: What about the Activity (Quadruplex DNA [10]) of the same molecule?
Answer: The Activity was “Active”.

Question: And the Activity (Quadruplex DNA [11])?
Answer: The Activity was “Active”.

Question: What about the deltaG (Quadruplex DNA [12]) of the same molecule?
Answer: The deltaG was -6.55 kcal/mol.

Question: And the deltaH (Quadruplex DNA [13])?
Answer: Its deltaH is -8.53 kcal/mol.

Question: What about the TdeltaS (Quadruplex DNA [14]) of the same molecule?
Answer: Its TdeltaS is -1.97 kcal/mol.

Question: And the Activity (Quadruplex DNA [15])?
Answer: The Activity was “Active”.

Question: What about the Activity (Quadruplex DNA [16]) of the same molecule?
Answer: Its Activity is “Active”.

Question: And the deltaTm (Quadruplex DNA [17])?
Answer: The deltaTm was 2 K.

Question: What about the Activity (Quadruplex DNA [18]) of the same molecule?
Answer: Its Activity is “Active”.
